# Measurements taken from PubChem BioAssay (NCI).
#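 Five concentrations, 48 hours, 96-well plates. TGI denotes the concentration required for complete inhibition of growth.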
# Key:
# Assay in all cases: NCI tumour cell line growth inhibition, 48 h
# ACHN renal = test system: ACHN renal
# SN12C renal = test system: SN12C renal
# A549 NSCLC = test system: A549 NSCLC
# NCI-H226 lung = test system: NCI-H226 lung
# UACC-62 melanoma = test system: UACC-62 melanoma
# SF-539 CNS = test system: SF-539 CNS
# MALME-3M melanoma = test system: MALME-3M melanoma
# OVCAR-3 ovarian = test system: OVCAR-3 ovarian
# RXF-631 renal = test system: RXF-631 renal
# COLO 205 colon = test system: COLO 205 colon
# RPMI-8226 leukemia = test system: RPMI-8226 leukemia
# HCC-2998 colon = test system: HCC-2998 colon
# M19-MEL melanoma = test system: M19-MEL melanoma
# SF-268 CNS = test system: SF-268 CNS
# MOLT-4 leukemia = test system: MOLT-4 leukemia
# SR leukemia = test system: SR leukemia
# XF 498 CNS = test system: XF 498 CNS
# HOP-62 NSCLC = test system: HOP-62 NSCLC
# RXF 393 renal = test system: RXF 393 renal
# NCI-H460 lung = test system: NCI-H460 lung
# SK-OV-3 ovarian = test system: SK-OV-3 ovarian
# NCI-H23 lung = test system: NCI-H23 lung
# HT29 colon = test system: HT29 colon
# SW-620 colon = test system: SW-620 colon
# SNB-75 CNS = test system: SNB-75 CNS
# HOP-92 NSCLC = test system: HOP-92 NSCLC
# SK-MEL-2 melanoma = test system: SK-MEL-2 melanoma
# SNB-78 CNS = test system: SNB-78 CNS
# LOX IMVI melanoma = test system: LOX IMVI melanoma
# EKVX NSCLC = test system: EKVX NSCLC
# IGROV1 ovarian = test system: IGROV1 ovarian
# LXFL 529 NSCLC = test system: LXFL 529 NSCLC
# SF-295 CNS = test system: SF-295 CNS
# SNB-19 CNS = test system: SNB-19 CNS
# UACC-257 melanoma = test system: UACC-257 melanoma
# HL-60(TB) leukemia = test system: HL-60(TB) leukemia
# TK-10 renal = test system: TK-10 renal
# CCRF-CEM leukemia = test system: CCRF-CEM leukemia
# UO-31 renal = test system: UO-31 renal
# U251 CNS = test system: U251 CNS
# SK-MEL-28 melanoma = test system: SK-MEL-28 melanoma
# HCT-15 colon = test system: HCT-15 colon
# 786-0 renal = test system: 786-0 renal
# DMS 273 small cell lung = test system: DMS 273 small cell lung
# OVCAR-8 ovarian = test system: OVCAR-8 ovarian
# HOP-18 NSCLC = test system: HOP-18 NSCLC
# OVCAR-5 ovarian = test system: OVCAR-5 ovarian
# DLD-1 colon = test system: DLD-1 colon
# KM12 colon = test system: KM12 colon
# HCT-116 colon = test system: HCT-116 colon
# M14 melanoma = test system: M14 melanoma
# DMS 114 small cell lung = test system: DMS 114 small cell lung
# KM20L2 colon = test system: KM20L2 colon
# K-562 leukemia = test system: K-562 leukemia
# CAKI-1 renal = test system: CAKI-1 renal
# NCI-H522 lung = test system: NCI-H522 lung
# SK-MEL-5 melanoma = test system: SK-MEL-5 melanoma
# A498 renal = test system: A498 renal
# OVCAR-4 ovarian = test system: OVCAR-4 ovarian
compound,measurement,setting,value
COC1CC(OC2C(C)OC(OC3C(C)OC(OC4CCC5(C)C(=CCC6(O)C5CC(OC(=O)c5ccc(O)cc5)C5(C)C(O)(C(C)=O)CCC65O)C4)CC3OC)CC2OC)OC(C)C1O (stereo not drawn) (tested in a mixture with another compound),TGI,ACHN renal,> 100 µM
same,TGI,SN12C renal,> 100 µM
same,TGI,A549 NSCLC,> 100 µM
same,TGI,NCI-H226 lung,> 100 µM
same,TGI,UACC-62 melanoma,52.7 µM
same,TGI,SF-539 CNS,72.6 µM
same,TGI,MALME-3M melanoma,74.6 µM
same,TGI,OVCAR-3 ovarian,57.2 µM
same,TGI,RXF-631 renal,> 100 µM
same,TGI,COLO 205 colon,55.3 µM
same,TGI,RPMI-8226 leukemia,95.8 µM
same,TGI,HCC-2998 colon,60.5 µM
same,TGI,M19-MEL melanoma,> 100 µM
same,TGI,SF-268 CNS,> 100 µM
same,TGI,MOLT-4 leukemia,82.2 µM
same,TGI,SR leukemia,76.5 µM
same,TGI,XF 498 CNS,9.05 µM
same,TGI,HOP-62 NSCLC,> 100 µM
same,TGI,RXF 393 renal,> 100 µM
same,TGI,NCI-H460 lung,> 100 µM
same,TGI,SK-OV-3 ovarian,> 100 µM
same,TGI,NCI-H23 lung,81.6 µM
same,TGI,HT29 colon,> 100 µM
same,TGI,SW-620 colon,> 100 µM
same,TGI,SNB-75 CNS,> 100 µM
same,TGI,HOP-92 NSCLC,59.5 µM
same,TGI,SK-MEL-2 melanoma,45.3 µM
same,TGI,SNB-78 CNS,57.2 µM
same,TGI,LOX IMVI melanoma,34.8 µM
same,TGI,EKVX NSCLC,> 100 µM
same,TGI,IGROV1 ovarian,> 100 µM
same,TGI,LXFL 529 NSCLC,78.4 µM
same,TGI,SF-295 CNS,> 100 µM
same,TGI,SNB-19 CNS,> 100 µM
same,TGI,UACC-257 melanoma,51.3 µM
same,TGI,HL-60(TB) leukemia,46.9 µM
same,TGI,TK-10 renal,> 100 µM
same,TGI,CCRF-CEM leukemia,92.7 µM
same,TGI,UO-31 renal,75 µM
same,TGI,U251 CNS,57.5 µM
same,TGI,SK-MEL-28 melanoma,> 100 µM
same,TGI,HCT-15 colon,> 100 µM
same,TGI,786-0 renal,57.1 µM
same,TGI,DMS 273 small cell lung,> 100 µM
same,TGI,OVCAR-8 ovarian,82.5 µM
same,TGI,HOP-18 NSCLC,> 100 µM
same,TGI,OVCAR-5 ovarian,> 100 µM
same,TGI,DLD-1 colon,> 100 µM
O=c1cccccc1NCCCCCCCCNc1cccccc1=O,TGI,ACHN renal,> 100 µM
same,TGI,SN12C renal,> 100 µM
same,TGI,A549 NSCLC,> 100 µM
same,TGI,NCI-H226 lung,> 100 µM
same,TGI,UACC-62 melanoma,> 100 µM
same,TGI,SF-539 CNS,> 100 µM
same,TGI,MALME-3M melanoma,> 100 µM
same,TGI,OVCAR-3 ovarian,> 100 µM
same,TGI,KM12 colon,> 100 µM
same,TGI,RXF-631 renal,> 100 µM
same,TGI,COLO 205 colon,> 100 µM
same,TGI,RPMI-8226 leukemia,> 100 µM
same,TGI,HCT-116 colon,> 100 µM
same,TGI,M14 melanoma,> 100 µM
same,TGI,HCC-2998 colon,> 100 µM
same,TGI,M19-MEL melanoma,> 100 µM
same,TGI,SF-268 CNS,> 100 µM
same,TGI,MOLT-4 leukemia,> 100 µM
same,TGI,SR leukemia,> 100 µM
same,TGI,XF 498 CNS,> 100 µM
same,TGI,HOP-62 NSCLC,> 100 µM
same,TGI,RXF 393 renal,> 100 µM
same,TGI,NCI-H460 lung,> 100 µM
same,TGI,SK-OV-3 ovarian,> 100 µM
same,TGI,NCI-H23 lung,> 100 µM
same,TGI,DMS 114 small cell lung,> 100 µM
same,TGI,HT29 colon,> 100 µM
same,TGI,SW-620 colon,> 100 µM
same,TGI,SNB-75 CNS,> 100 µM
same,TGI,HOP-92 NSCLC,87.3 µM
same,TGI,KM20L2 colon,> 100 µM
same,TGI,SK-MEL-2 melanoma,> 100 µM
same,TGI,SNB-78 CNS,> 100 µM
same,TGI,LOX IMVI melanoma,> 100 µM
same,TGI,EKVX NSCLC,> 100 µM
same,TGI,IGROV1 ovarian,> 100 µM
same,TGI,K-562 leukemia,> 100 µM
same,TGI,CAKI-1 renal,> 100 µM
same,TGI,LXFL 529 NSCLC,> 100 µM
same,TGI,SF-295 CNS,> 100 µM
same,TGI,SNB-19 CNS,> 100 µM
same,TGI,UACC-257 melanoma,> 100 µM
same,TGI,HL-60(TB) leukemia,> 100 µM
same,TGI,NCI-H522 lung,> 100 µM
same,TGI,CCRF-CEM leukemia,> 100 µM
same,TGI,UO-31 renal,> 100 µM
same,TGI,U251 CNS,> 100 µM
same,TGI,HCT-15 colon,> 100 µM
same,TGI,786-0 renal,> 100 µM
same,TGI,DMS 273 small cell lung,> 100 µM
same,TGI,OVCAR-8 ovarian,> 100 µM
same,TGI,OVCAR-5 ovarian,> 100 µM
same,TGI,DLD-1 colon,> 100 µM
c1ccc(CNc2ccc3[nH]c4cnccc4c3c2)cc1,TGI,ACHN renal,29 µM
same,TGI,SN12C renal,33.3 µM
same,TGI,A549 NSCLC,34.7 µM
same,TGI,NCI-H226 lung,38.4 µM
same,TGI,SK-MEL-5 melanoma,30.2 µM
same,TGI,UACC-62 melanoma,34 µM
same,TGI,SF-539 CNS,33.3 µM
same,TGI,A498 renal,28.6 µM
same,TGI,MALME-3M melanoma,35.8 µM
same,TGI,OVCAR-4 ovarian,29.1 µM
same,TGI,OVCAR-3 ovarian,27 µM
same,TGI,KM12 colon,31.1 µM
same,TGI,RXF-631 renal,49.2 µM
same,TGI,COLO 205 colon,31 µM
same,TGI,RPMI-8226 leukemia,54.7 µM
same,TGI,HCT-116 colon,33.2 µM
same,TGI,M14 melanoma,32.9 µM
same,TGI,HCC-2998 colon,33.2 µM
same,TGI,M19-MEL melanoma,36.3 µM
same,TGI,SF-268 CNS,35 µM
same,TGI,MOLT-4 leukemia,36.9 µM
same,TGI,XF 498 CNS,35.8 µM
same,TGI,HOP-62 NSCLC,31.7 µM
same,TGI,RXF 393 renal,26.8 µM
same,TGI,NCI-H460 lung,34.1 µM
same,TGI,SK-OV-3 ovarian,41.5 µM
same,TGI,NCI-H23 lung,32.3 µM
same,TGI,DMS 114 small cell lung,32.1 µM
same,TGI,HT29 colon,31.7 µM
same,TGI,SW-620 colon,42.2 µM
same,TGI,SNB-75 CNS,19.8 µM
same,TGI,HOP-92 NSCLC,30.8 µM
same,TGI,KM20L2 colon,30.9 µM
same,TGI,SK-MEL-2 melanoma,33.1 µM
same,TGI,SNB-78 CNS,38.5 µM
same,TGI,LOX IMVI melanoma,33.5 µM
same,TGI,EKVX NSCLC,43.4 µM
same,TGI,IGROV1 ovarian,34.4 µM
same,TGI,K-562 leukemia,36.5 µM
same,TGI,CAKI-1 renal,30.4 µM
same,TGI,LXFL 529 NSCLC,30.5 µM
same,TGI,SF-295 CNS,32.6 µM
same,TGI,SNB-19 CNS,29.6 µM
same,TGI,UACC-257 melanoma,31.4 µM
same,TGI,HL-60(TB) leukemia,27.4 µM
same,TGI,NCI-H522 lung,29.1 µM
same,TGI,TK-10 renal,36.2 µM
same,TGI,CCRF-CEM leukemia,42.5 µM
same,TGI,UO-31 renal,29.4 µM
same,TGI,U251 CNS,32 µM
same,TGI,SK-MEL-28 melanoma,27.1 µM
same,TGI,HCT-15 colon,39.1 µM
same,TGI,786-0 renal,29.3 µM
same,TGI,DMS 273 small cell lung,37.4 µM
same,TGI,OVCAR-8 ovarian,36.5 µM
same,TGI,OVCAR-5 ovarian,30.9 µM
same,TGI,DLD-1 colon,31.9 µM
